“Also recorded” adds a separate entry of the source.
Tests used:
[1] = tested on: clot formation in whole blood; test: TEG of whole blood, coagulation triggered by kaolin (Example I); assay type: cell-based; conditions: for α: buffer 44.9 degrees; for MA: buffer 63.1 mm; for R: buffer 6.8 minutes
Description: TEG is a waveform generated from serial measurements of the torque transmitted from a small oscillating cup to the tip of a metal pin inserted into the cup by a 360 microliter sample of blood or plasma added to the cup.
A 360 microliter blood sample has been added to the cup. For 180 minutes after the sample is added, the cup oscillates alternatively clockwise and counterclockwise through an arc of 4° 45′ at a frequency of one oscillation cycle—i. e., one clockwise rotation and one counterclockwise rotation—every 10 seconds. The lower end of the pin is immersed by the sample; the upper end is suspended from a torsion wire. The TEG analyzer records a single measurement of rotation-induced torque after each clockwise rotation and after each counterclockwise rotation of the cup. “The torque of the rotating cup is transmitted to the immersed pin only after fibrin-platelet bonding has linked the cup and [the] pin together. The strength of these fibrin-platelet bonds affects the magnitude of the pin motion, such that strong clots move the pin directly in phase with the cup motion. Thus, the magnitude of the output is directly related to the strength of the formed clot . . . . [If] the clot retracts or lyses, these bonds are broken and the transfer of cup motion is diminished. The rotation movement of the pin is converted by a mechanical-electrical transducer to an electrical signal which can be monitored by a computer” (TEG 5000 User Manual, pp 3-4, 1999-2007)). The computer converts the series of electrical signals into the TEG tracing.
In the absence of an anticoagulant (A), R was 6.8 minutes, α was 44.9 degrees, and MA was 63.1 mm. […] Thus, each aptamer, to varying degrees, prolonged the time to clot formation, reduced the rate of clot strengthening, and reduced the ultimate strength of the clot. However, as was true in the previous experiment, no aptamer acting alone at the concentrations tested prevented clot formation.

[2] = tested on: fibrin deposition on oxygenator membrane; test: Oxygenator membrane scanning electron microscopy; parameters: species or system human; conditions: FIG. 25 doses: UFH 5 U/mL, 9.3T 1 μM, 11F7T 2 μM, R9D-14T 5 μM, 11F7T 0.5 μM+R9D-14T 5 μM
Description: After 2 hours of circulation (or until there was visible clot formation), the minicircuit was washed with three volumes (approximately 60 mL) of PBS at a flow rate of 50 mL/min. The oxygenator membrane was removed with forceps, washed with gentle rocking in PBS for approximately 30 sec, then removed and blotted. Three pieces approximately 10 mm×10 mm were excised from different areas of the membrane with a clean razor blade. The membrane pieces were fixed overnight in PBS with 4% formaldehyde and 2% glutaraldehyde, washed two times with PBS, then dehydrated in an ethanol gradient (30% to 100%). The membranes were subsequently submerged in tetramethylsilane (TMS) for 10 min, then removed and placed in a desiccator overnight. Desiccated membrane specimens measuring approximately 10 mm×7 mm were affixed with double sided tape to circular metal stubs approximately 14 mm in diameter. The specimens were gold sputter coated in a Denton Vacuum Desk IV® (Denton Vacuum LLC, Moorestown, N.J.) according to the manufacturer's instructions. The scanning electron microscopic (SEM) images were obtained with a FEI XL 30 FE SEM (FEI, Hillsboro, Oreg.).

[3] = tested on: thrombin generation in normal human platelet poor plasma; test: Calibrated automated thrombography (CAT); assay type: biochemical
Description: Normal human platelet poor plasma (80 μL) was mixed with aptamer(s) (10 μL) in an Immunolon 2HB U Bottom Mictrotiter 96-well plate (Thermo Labsystems, Franklin, Mass.) and incubated at 37° C. for 5 min. PPP reagent (Diagnostica Stago, Parsippany, N.J.) (either 1 ρM or 5 ρM TF, 20 μL, Diagnostica Stago) was added, and the mixture was incubated at 37° C. for another 5 min. FluCa (Diagnostica Stago) (10 μL) was added to initiate the assay and thrombin generation was measured for 60 minutes at 37° C. with a Fluoroskan Ascent fluorometer (ThermoLabsystem, Helsinki, Finland) according to the manufacturer's instructions. The amount of thrombin generated was quantified by comparison to an assay with thrombin calibrator reagent (Diagnostica Stago) that has a known activity toward the fluorogenic substrate. The lag time, peak amount of thrombin generated, and endogenous thrombin potential (ETP) were automatically calculated by the Thrombinoscope software (Thrombinoscope BV, the Netherlands).
Thrombin is the final protease formed in the coagulation cascade, and the rate of thrombin generation and the total amount of thrombin generated is associated with blood clot formation and stability (Wolberg, Blood Rev 21:131-42 (2007)). To gain more information about the impact of aptamer anticoagulation on the kinetics of thrombin generation, the individual aptamers were analyzed with calibrated automated thrombography (CAT). The CAT assay measures real-time thrombin generation in plasma by monitoring cleavage of a thrombin-specific fluorogenic substrate in response to TF stimulation (Heruker et al, Pathophysiol Haemost Thromb 33: 4-15 (2003)). The parameters of thrombin generation analyzed include: the lag time (time until thrombin generation begins), the peak (the maximal amount of thrombin generated at a given time) and the endogenous thrombin potential (ETP, the total amount of thrombin generated). Similar to the aPTT and PT clotting assays, all of the individual aptamers dose-dependently impacted the various parameters of thrombin generation (FIG. 21 and Table 1). […] 9.3T minorly impacted all parameters of thrombin generation with the high TF reagent; however, because high concentrations of TF may bypass FIX activity by directly generating FXa, the manufacturer recommends low concentrations of TF for analyzing FIX deficient (i.e, Hemophilia B) plasma in the CAT.

R9D-14T: prothrombin/thrombin aptamer, 58-base truncation of RNA9D-14, SEQ ID NO: 3 (GGCGGTCGATCACACAGTTCAAACGTAATAAGCCAATGTACGAGGCAGACGACTCGCC; 2'-fluoro at CT, RNA at AG, backbone and T or U not given here) [Aptamer R9D-14T]
α ([1]; 5.0 micromolar, kaolin): 18.6 degrees | MA ([1]; 5.0 micromolar, kaolin): 42.5 mm | R ([1]; 5.0 micromolar, kaolin): 31.3 min | fibrin deposition on oxygenator membrane, scanning electron micrographs (in words) [2]: obvious fibrin deposition on the membrane | ETP ([3]; RNA 625 nM, TF 5 ρM): 1492.50 ± 54.94 nM·min | Lag-time ([3]; RNA 625 nM, TF 5 ρM): 1.55 ± 0.08 min | Peak ([3]; RNA 625 nM, TF 5 ρM): 314.82 ± 25.02 nM | TTP ([3]; RNA 625 nM, TF 5 ρM): 3.88 ± 0.18 min | ETP ([3]; RNA 1,250 nM, TF 5 ρM): 1293.00 ± 67.66 nM·min | Lag-time ([3]; RNA 1,250 nM, TF 5 ρM): 1.55 ± 0.08 min | Peak ([3]; RNA 1,250 nM, TF 5 ρM): 269.45 ± 13.17 nM | TTP ([3]; RNA 1,250 nM, TF 5 ρM): 3.67 ± 0.18 min | ETP ([3]; RNA 2,500 nM, TF 5 ρM): 1170.90 ± 90.47 nM·min | Lag-time ([3]; RNA 2,500 nM, TF 5 ρM): 4.37 ± 0.71 min | Peak ([3]; RNA 2,500 nM, TF 5 ρM): 192.66 ± 31.04 nM | TTP ([3]; RNA 2,500 nM, TF 5 ρM): 7.64 ± 1.31 min | thrombin generation (in words) ([3]; RNA 5,000 nM (5 μM), TF 5 ρM): completely inhibited thrombin generation; also recorded: no thrombin generation detected

11F7T: FXa aptamer, 2'-fluoropyrimidine modified RNA, SEQ ID NO: 2 (GAGAGCCCCAGCGAGAUAAUACUUGGCCCCGCUCUU; 2'-fluoro at CU, RNA at AG, backbone not given here) [Aptamer 11F7T]
α ([1]; 2.0 micromolar, kaolin): 29.8 degrees | MA ([1]; 2.0 micromolar, kaolin): 48.4 mm | R ([1]; 2.0 micromolar, kaolin): 22.5 min | clot formation in TEG assays, single agents (in words) ([1]; data not shown): delay, but do not prevent clot formation | fibrin deposition on oxygenator membrane, scanning electron micrographs (in words) [2]: obvious fibrin deposition on the membrane | ETP ([3]; RNA 125 nM, TF 5 ρM): 1612.90 ± 142.40 nM·min | Lag-time ([3]; RNA 125 nM, TF 5 ρM): 3.00 ± 0.22 min | Peak ([3]; RNA 125 nM, TF 5 ρM): 227.75 ± 43.47 nM | TTP ([3]; RNA 125 nM, TF 5 ρM): 7.24 ± 0.77 min | ETP ([3]; RNA 250 nM, TF 5 ρM): 1220.50 ± 182.02 nM·min | Lag-time ([3]; RNA 250 nM, TF 5 ρM): 4.94 ± 0.38 min | Peak ([3]; RNA 250 nM, TF 5 ρM): 120.68 ± 21.79 nM | TTP ([3]; RNA 250 nM, TF 5 ρM): 11.70 ± 1.13 min | ETP ([3]; RNA 500 nM, TF 5 ρM): 738.60 ± 202.92 nM·min | Lag-time ([3]; RNA 500 nM, TF 5 ρM): 7.97 ± 0.93 min | Peak ([3]; RNA 500 nM, TF 5 ρM): 65.56 ± 14.57 nM | TTP ([3]; RNA 500 nM, TF 5 ρM): 16.47 ± 1.83 min | ETP ([3]; RNA 1,000 nM, TF 5 ρM): 459.40 ± 199.39 nM·min | Lag-time ([3]; RNA 1,000 nM, TF 5 ρM): 9.50 ± 1.00 min | Peak ([3]; RNA 1,000 nM, TF 5 ρM): 36.84 ± 14.42 nM | TTP ([3]; RNA 1,000 nM, TF 5 ρM): 20.10 ± 2.96 min

9.3T: FIXa aptamer, 2'-fluoropyrimidine modified RNA, SEQ ID NO: 1 (AUGGGGACUAUACCGCGUAAUGCUGCCUCCCCAU; 2'-fluoro at CU, RNA at AG, backbone not given here) [Aptamer 9.3T]
α ([1]; 2.0 micromolar, kaolin): 36.6 degrees | MA ([1]; 2.0 micromolar, kaolin): 58.6 mm | R ([1]; 2.0 micromolar, kaolin): 29.2 min | time of clot formation (bifurcation) ([1]; FIXa aptamer 0.5 micromolar, kaolin): 22.1 min | fibrin deposition on oxygenator membrane, scanning electron micrographs (in words) [2]: obvious fibrin deposition on the membrane | ETP ([3]; RNA 15 nM, TF 1 ρM): 1463.50 ± 19.59 nM·min | Lag-time ([3]; RNA 15 nM, TF 1 ρM): 3.06 ± 0.15 min | Peak ([3]; RNA 15 nM, TF 1 ρM): 195.04 ± 6.91 nM | TTP ([3]; RNA 15 nM, TF 1 ρM): 7.34 ± 0.26 min | ETP ([3]; RNA 15 nM, TF 5 ρM): 1812.50 ± 81.01 nM·min | Lag-time ([3]; RNA 15 nM, TF 5 ρM): 1.72 ± 0.20 min | Peak ([3]; RNA 15 nM, TF 5 ρM): 341.90 ± 12.54 nM | TTP ([3]; RNA 15 nM, TF 5 ρM): 4.23 ± 0.24 min | ETP ([3]; RNA 30 nM, TF 1 ρM): 1350.17 ± 28.02 nM·min | Lag-time ([3]; RNA 30 nM, TF 1 ρM): 3.00 ± 0.10 min | Peak ([3]; RNA 30 nM, TF 1 ρM): 147.88 ± 4.28 nM | TTP ([3]; RNA 30 nM, TF 1 ρM): 8.12 ± 0.34 min | ETP ([3]; RNA 30 nM, TF 5 ρM): 1723.67 ± 57.51 nM·min | Lag-time ([3]; RNA 30 nM, TF 5 ρM): 1.56 ± 0.20 min | Peak ([3]; RNA 30 nM, TF 5 ρM): 316.98 ± 3.28 nM | TTP ([3]; RNA 30 nM, TF 5 ρM): 4.28 ± 0.40 min | ETP ([3]; RNA 60 nM, TF 1 ρM): 1261.50 ± 64.85 nM·min | Lag-time ([3]; RNA 60 nM, TF 1 ρM): 2.89 ± 0.15 min | Peak ([3]; RNA 60 nM, TF 1 ρM): 110.65 ± 6.70 nM | TTP ([3]; RNA 60 nM, TF 1 ρM): 8.95 ± 0.15 min | ETP ([3]; RNA 60 nM, TF 5 ρM): 1741.10 ± 78.84 nM·min | Lag-time ([3]; RNA 60 nM, TF 5 ρM): 1.70 ± 0.11 min | Peak ([3]; RNA 60 nM, TF 5 ρM): 283.76 ± 3.20 nM | TTP ([3]; RNA 60 nM, TF 5 ρM): 4.90 ± 0.31 min | ETP ([3]; RNA 120 nM, TF 1 ρM): 1125.00 ± 31.79 nM·min | Lag-time ([3]; RNA 120 nM, TF 1 ρM): 2.72 ± 0.05 min | Peak ([3]; RNA 120 nM, TF 1 ρM): 86.13 ± 3.02 nM | TTP ([3]; RNA 120 nM, TF 1 ρM): 9.34 ± 0.19 min | ETP ([3]; RNA 120 nM, TF 5 ρM): 1674.50 ± 56.02 nM·min | Lag-time ([3]; RNA 120 nM, TF 5 ρM): 1.60 ± 0.15 min | Peak ([3]; RNA 120 nM, TF 5 ρM): 272.90 ± 9.97 nM | TTP ([3]; RNA 120 nM, TF 5 ρM): 4.74 ± 0.37 min

Source: patent publication US9687529B2, “Method of controlling coagulation” (Duke University, priority 2011, dated 2017)
